Results taken from PubChem BioAssay AID1996.
≈ marks a conversion by molar mass, not a printed value.

conditions: buffer; pH 7.4; 200.0 µM

SMILES | solubility kinetic
Cc1cc(/C(N)=N/OC(=O)Nc2ccccc2)no1 | 15.7 µg/mL (≈ 60.3 µM)
O=C(NC(=S)NCCc1ccccc1)c1ccccc1F | 0.8 µg/mL (≈ 2.65 µM)
O=[N+]([O-])c1ccccc1CN1CC=C(c2ccc(F)cc2)CC1 | 2.3 µg/mL (≈ 7.36 µM)
S=c1nc(NCc2ccc3c(c2)OCO3)c2ccccc2[nH]1 | 0.6 µg/mL (≈ 1.93 µM)
O=C(CN1CCOCC1)Nc1ccc([N+](=O)[O-])cc1Br | 7.3 µg/mL (≈ 21.2 µM)
COCC[N+]1(C)CCCCC1.[I-] | > 42.8 µg/mL
Cc1ccc(CN(C)C(=O)c2cccc(S(=O)(=O)N3CCc4ccccc43)c2)cc1 | 5.8 µg/mL (≈ 13.8 µM)
CCOc1ccc(C2NC(=O)NC(C)=C2[N+](=O)[O-])cc1OC (centres undefined) | 45.5 µg/mL (≈ 148 µM)
Cn1c(=O)c2nc(-c3ccccc3)c(-c3ccccc3)nc2n(C)c1=O | 0.9 µg/mL (≈ 2.61 µM)
Cc1cc(C(=O)NC2CC2)c2ccccc2n1 | 29.5 µg/mL (≈ 130 µM)
O=C(CCN1C(=O)C2C3CCC(C3)C2C1=O)OCC(=O)c1ccccc1 (centres undefined) | 52.9 µg/mL (≈ 149 µM)
COc1ccc(C(=O)CN2C(=O)NC3(CCc4ccccc43)C2=O)cc1 (centres undefined) | 25.3 µg/mL (≈ 72.2 µM)
CN(Cc1nc2ccccc2s1)C(=O)c1ccc(F)cc1 | > 45.1 µg/mL
COc1cccc(CN2C(=O)c3ccccc3S2(=O)=O)c1 | 30 µg/mL (≈ 98.9 µM)
CCCOC(=O)Nc1nc(-c2ccc(C)cc2)c(C)s1 | 1.3 µg/mL (≈ 4.48 µM)
COc1ccc(NC(=O)C2CCCN(C(=O)Nc3ccc(F)cc3)C2)cc1OC (centres undefined) | 13.2 µg/mL (≈ 32.9 µM)
O=C(CCNS(=O)(=O)c1ccccc1F)OCc1ccccc1Cl | 34.5 µg/mL (≈ 92.8 µM)
Cc1ccsc1C(=O)NCC(=O)OCc1ccccc1 | > 43.4 µg/mL
CCN(C(=S)Nc1cccnc1)c1ccccc1 | 36.3 µg/mL (≈ 141 µM)
COc1cc2nc(N3CCN(C(=O)c4ccco4)CC3)nc(N)c2cc1OC.Cl | 61.9 µg/mL
COCc1cc(=O)[nH]c(-c2csc(C)n2)n1 | > 35.6 µg/mL
CC(C#N)Sc1ccc(S(=O)(=O)N2CCCCC2)cn1 (centres undefined) | 9.4 µg/mL (≈ 30.2 µM)
CCSc1ccccc1-c1nc(-c2ccncc2)no1 | 5.1 µg/mL (≈ 18 µM)
CC(C)NC(=O)C(=O)Nc1cc2c3c(c1)C(C)C(=O)N3CCC2 (centres undefined) | 44.6 µg/mL (≈ 141 µM)

SMILES | solubility kinetic
CN(C)CCn1c(=S)[nH]c2ncccc2c1=O | 35.8 µg/mL (≈ 143 µM)
C[C@@H]1CN(Cc2nc(-c3cnccn3)no2)C[C@H](C)O1 | 30.8 µg/mL (≈ 112 µM)
CCOc1ccc(CNc2ccc3c(c2)ncn3C(C)(C)C)cc1 | 46.3 µg/mL (≈ 143 µM)
COc1ccc(CNC(=O)CN(c2ccc(C(C)=O)cc2)S(=O)(=O)c2ccc(C)cc2)cc1OC | 4.1 µg/mL (≈ 8.26 µM)
Cc1cc(C)nc(NC(=O)c2cccc(Br)c2)n1 | 39.8 µg/mL (≈ 130 µM)
Cc1cccc(N2C(=O)C3C4C=CC(CC4)C3C2=O)c1 (centres undefined) | 33.5 µg/mL (≈ 125 µM)
Cc1ccc(C)c(C(=O)COC(=O)Cn2c(C)csc2=O)c1 | > 47.9 µg/mL
Cc1cccc(Nc2ccccc2C(=O)O)c1C | > 36.2 µg/mL
Cc1ccc(NC(=O)c2cc3c(s2)CCCC3)cc1 | 4 µg/mL (≈ 14.7 µM)
CC1CCCC(NC(=O)CN2C(=O)NC(C)(c3cc(F)ccc3F)C2=O)C1C (centres undefined) | > 59 µg/mL
COc1ccc2cc(S(=O)(=O)N3CCCC3)ccc2c1 | 3.5 µg/mL (≈ 12 µM)
O=C(Cc1cccs1)Nc1ccccc1F | > 35.3 µg/mL
CC(C)c1ccc(N2C(=O)CC(=O)NC2=O)cc1 | 34.4 µg/mL (≈ 140 µM)
O=C(Nn1cnc2ccccc2c1=O)c1ccc([N+](=O)[O-])cc1 | > 46.5 µg/mL
CCCOc1ccc(C(CC(=O)O)NC(=O)Cc2ccccc2)cc1 (centres undefined) | > 51.2 µg/mL
C=CCNC(=O)c1cc(-c2ccc3c(c2)OCO3)on1 | 1.5 µg/mL (≈ 5.51 µM)
O=C1CSC(c2cccnc2)N1c1cccc(Cl)c1 (centres undefined) | 43.3 µg/mL (≈ 149 µM)
Cc1noc(C(=O)Nc2cc(Cl)ccc2O)c1Cl | 1.7 µg/mL (≈ 5.92 µM)
COc1cccc(NC(=O)CCN2C(=O)c3cccc([N+](=O)[O-])c3C2=O)c1 | > 55.4 µg/mL
CN(C)c1ccc(NC(=O)CCN2C(=O)c3cccc([N+](=O)[O-])c3C2=O)cc1 | 42.4 µg/mL (≈ 111 µM)
Nc1nccc(-c2cc(-c3ccc(Cl)cc3Cl)no2)n1 | 0.7 µg/mL (≈ 2.28 µM)
CNC(=O)c1c(NC(=O)c2ccco2)sc(C)c1C | 11.6 µg/mL (≈ 41.7 µM)
NC(=O)NCC(c1ccccc1)C1CCCCC1 (centres undefined) | 33.4 µg/mL (≈ 136 µM)
O=C(c1ccccn1)N1CCN(c2cccc(C(F)(F)F)c2)CC1 | > 50.3 µg/mL

SMILES | solubility kinetic
Cc1cc(SCc2ccccc2C)nc(=O)[nH]1 | 30.7 µg/mL (≈ 125 µM)
Cn1cc(S(=O)(=O)NC2CCCC2)c(=O)n(C)c1=O | > 43.1 µg/mL
NC(=O)CSc1nnc(Cc2ccc3c(c2)OCO3)o1 | > 44 µg/mL
COc1ccccc1NC(=O)C(C)OC(=O)Cc1ccsc1 (centres undefined) | > 47.9 µg/mL
Cc1cc(OCCN2CCOCC2)ccc1C(C)C.Cl | 34.2 µg/mL
CS(=O)(=O)N(CC(=O)N1CCCC1)c1ccc(Cl)cc1 | > 47.5 µg/mL
CCN(CC(=O)NCc1ccc(F)cc1)CC(=O)Nc1ccc(Br)cc1F | 58.9 µg/mL (≈ 134 µM)
NC(=O)CCSC(=S)N1CCOCC1 | > 35.1 µg/mL
COc1cc(CC(=O)N2CCN(C(=O)C3CCCO3)CC2)cc(OC)c1OC (centres undefined) | > 58.9 µg/mL
O=C(c1cccc(S(=O)(=O)NCc2ccccc2)c1)N1CCN(c2ccccc2)CC1 | 2.4 µg/mL (≈ 5.51 µM)
CCS(=O)(=O)c1ncc(Cl)c(C(=O)Nc2ccccc2OC)n1 | 0.3 µg/mL (≈ 0.843 µM)
Cc1cc(C)cc(N=Cc2c(O)c3ccccc3oc2=O)c1 | < 0.6 µg/mL
CN(CC(=O)Nc1cccc(F)c1)C(=O)/C=C/c1ccc2ccccc2n1 | 9.9 µg/mL (≈ 27.2 µM)
CC1=C(C)CC(C(=O)NC2CCN(C(C)C)CC2)C(C(=O)O)C1 (centres undefined) | > 48.4 µg/mL
Cc1ccc(Oc2ncccc2C(=O)NCC(=O)O)cc1 | 42.7 µg/mL (≈ 149 µM)
O=C(/C=C/c1c(Cl)cccc1Cl)NCCCn1ccnc1 | 46.1 µg/mL (≈ 142 µM)
Cc1cc(C=C2C(=O)N(C)C(=S)N(C)C2=O)c(C)n1-c1cccnc1 | 13.9 µg/mL (≈ 39.2 µM)
O=C(CCN1C(=O)c2ccccc2C1=O)NCCCn1ccnc1 | > 49 µg/mL
COc1cc(/C=C/C(=O)OCC(=O)NCCc2ccc(F)cc2)ccc1OC(F)F | 4 µg/mL (≈ 9.45 µM)
CCc1cccc(NC(=S)Nc2cccc3ccccc23)c1 | 3.8 µg/mL (≈ 12.4 µM)
CN(C)CC(c1ccccc1)c1ccccc1.Cl | 34.3 µg/mL
COC(OC)c1ccnc(-c2ccc(OC(C)=O)cc2)n1 | > 43.2 µg/mL
O=C(COC(=O)c1ccccc1O)Nc1ncc(Cl)cc1Cl | 23.5 µg/mL (≈ 68.9 µM)
COc1ccc(C2(O)C(=O)Nc3ccccc32)cc1 (centres undefined) | > 38.3 µg/mL

SMILES | solubility kinetic
Cc1nc(-c2ccc(Cl)cc2)sc1C(=O)O | 33.2 µg/mL (≈ 131 µM)
O=C(O)CC1(CC(=O)Nc2ccccc2N2CCOCC2)CCCC1 | > 52 µg/mL
COc1ccccc1C(=O)NCCC(=O)N1CCCCC1 | > 43.6 µg/mL
Cc1cc(=O)[nH]c(Nc2cccc(F)c2)n1 | > 32.9 µg/mL
CCN(CC(=O)NCc1cccs1)C(=O)c1ccc(Cl)c(Cl)c1 | > 55.7 µg/mL
CCC(=O)Nc1ccc(NCc2cccs2)cc1 | > 39.1 µg/mL
Cc1ccc(COC(=O)NCc2cccnc2)cc1 | 35.7 µg/mL (≈ 139 µM)
COc1ccc(NS(=O)(=O)c2cc(N)ccc2N2CCOCC2)cc1 | 13.2 µg/mL (≈ 36.3 µM)
O=C(Nc1cc(S(=O)(=O)N2CCOCC2)ccc1N1CCOCC1)c1ccccc1Cl | > 69.9 µg/mL
O=C(COC(=O)/C=C/c1ccc([N+](=O)[O-])cc1)NCC1CCCCC1 | 1.5 µg/mL (≈ 4.33 µM)
O=C1NC(=O)c2cc3ccccc3cc21 | 10.6 µg/mL (≈ 53.8 µM)
COc1ccccc1CNCCc1ccc(F)cc1.O=C(O)C(=O)O | > 52.4 µg/mL
COC(=O)c1ccc(C(=O)N=c2sccn2C)cc1 | 13.9 µg/mL (≈ 50.3 µM)
CC(C)[N+](C)(C)CC#CC(O)(c1ccccc1)c1ccccc1.[Br-] | 51 µg/mL
COc1ccc(S(=O)(=O)N(C)CC(=O)NC2CC2)cc1OC | > 49.3 µg/mL
Cc1nnc(NC(=O)C2CCN(S(=O)(=O)c3ccc(F)c(F)c3)CC2)o1 | > 58 µg/mL
CCN1c2ccccc2S(=O)(=O)c2ccccc21 | 15.6 µg/mL (≈ 60.2 µM)
CCC(C)Nc1nc(-c2ccccn2)nc2ccccc12 (centres undefined) | > 41.8 µg/mL
CCOc1ccc(C(=O)Oc2ccc(NC(C)=O)cc2)cc1 | < 0.6 µg/mL
C=CCNC(=S)N1CCN(CCNC2=CC(=O)CC(C)(C)C2)CC1 | > 52.6 µg/mL
Cc1ccc(C)n1-c1cccc(C(=O)Nc2ccccc2)c1 | 13.9 µg/mL (≈ 47.9 µM)
COc1cccc(C=Nc2ccc3c(c2)CCC3)c1O | 26.8 µg/mL (≈ 100 µM)
COc1ccc(Cn2c(C(F)(F)F)ccc(C(N)=O)c2=O)cc1 | 8.2 µg/mL (≈ 25.1 µM)
Cc1cccc(/N=C/c2sc3ccccc3c2O)n1 | 1.1 µg/mL (≈ 4.1 µM)

SMILES | solubility kinetic
COc1ccc(NC(=O)CSc2nnc(N)s2)cc1S(=O)(=O)N1CCCCC1 | > 66.5 µg/mL
CN(C)/C=N/NC(=O)C1Cc2c(ccc3ccccc23)O1 (centres undefined) | > 42.5 µg/mL
CCOC(=O)c1c(C)[nH]c(C)c1C(=O)COC(=O)CSc1ccc(C)cc1 | > 58.4 µg/mL
O=C(OCc1ccc(Cl)c(Cl)c1)c1ccc[nH]1 | 1.9 µg/mL (≈ 7.03 µM)
Cc1ccc(NC(=O)C(C)OC(=O)/C=C/c2ccccc2)cc1 (centres undefined) | 4 µg/mL (≈ 12.9 µM)
COc1ccccc1Nc1nc(-c2sc(N)nc2C)cs1 | 19.2 µg/mL (≈ 60.3 µM)
Cc1cccc(N2C(=O)Cc3ccccc3C2=O)c1 | 30.7 µg/mL (≈ 122 µM)
CCC(Sc1nc(C)cc(C)n1)C(=O)Nc1nccs1 (centres undefined) | 43.1 µg/mL (≈ 140 µM)
Cc1ccc(NS(=O)(=O)c2ccc(C(=O)NCc3ccc(S(N)(=O)=O)cc3)cc2)cc1 | 51.7 µg/mL (≈ 113 µM)
O=C(NCC(=O)N1CCCCCCC1)c1ccccc1Cl | > 46.3 µg/mL
Cc1ccc(NC(=O)Cn2cnc3cc([N+](=O)[O-])ccc3c2=O)cc1 | 3.9 µg/mL (≈ 11.5 µM)
COc1c(C=O)cc2c3c1CCCN3CCC2 | 29.7 µg/mL (≈ 128 µM)
Cl.O=C(NCCCn1ccnc1)c1ccc(F)cc1 | > 42.6 µg/mL
O=C(COC(=O)CN1C(=O)C2CCCCC2C1=O)Nc1ccc(F)c(F)c1F (centres undefined) | > 59.8 µg/mL
CCCSCCCNC(=O)Cn1c(=O)c2cccn2c2ccccc21 | 7.7 µg/mL (≈ 21.5 µM)
O=C1Nc2ccccc2C1=Nc1ccc(Cl)cc1 | 13.5 µg/mL (≈ 52.6 µM)
O=C(Nc1cccc2ncccc12)C(c1ccccc1)c1ccccc1 | < 0.4 µg/mL
CCOc1ccc(NC(=O)N2CC(C)OC(C)C2)cc1 (centres undefined) | > 41.8 µg/mL
COc1ccccc1NS(=O)(=O)c1ccc2oc(SC)nc2c1 | 1.9 µg/mL (≈ 5.42 µM)
COCCn1c(=S)[nH]c2sc3c(c2c1=O)CCC(C)C3 (centres undefined) | 40.4 µg/mL (≈ 130 µM)
O=[N+]([O-])c1ccc(OCc2n[nH]c(=S)n2-c2ccccc2)cc1 | > 49.3 µg/mL
O=C(COC(=O)/C=C/c1ccc(Cl)cc1Cl)NCC1CCCO1 (centres undefined) | 10.4 µg/mL (≈ 29 µM)
Cc1oc(-c2cccc(C(F)(F)F)c2)nc1CN1CCC[C@H]1CO | > 51.1 µg/mL
